“Also recorded” adds a separate entry of the source.
Test system: RBPMS2 transcript level in GIST882 cells
Assay: RBPMS2 transcript level by quantitative RT-PCR in GIST882 cells after inhibitor treatment
Type: cell-based, human
Protocol: For quantitative RT-PCR analysis, gene expression levels were measured using the LightCycler technology (Roche Diagnostics). […] Each sample was assayed in three independent experiments in triplicate. Expression levels were determined with the LightCycler analysis software (version 3.5) relative to standard curves. Data were represented as the mean level of gene expression relative to the expression of the reference gene HPRT (Roche Diagnostic). For cell culture experiments, RNA isolation was done with the RNeasy Mini kit (Qiagen) and quantitative RT-PCR was performed using Power Sybergreen (Applied biosystems). Data were represented as the mean level of gene expression relative to the expression of the reference genes ABL, TTC1 and UBC for the comparison of RBPMS2 expression between different cell lines and GAPDH and ACTIN for GIST882 cells, which were treated with either Imatinib or U0126.
The human GIST cell line GIST882 was maintained in DMEM (GIBCO) supplemented with 10% Fetal Bovine Serum (FBS), 2% Penicilline-Streptomycin (Lonza) and incubated with 1 μM of Imatinib (inhibitor of KIT activity) (LC Laboratory) or 5 μM of U0126 (MEK inhibitor) (Sigma-Aldrich), as previously described (Gromova et al., 2011).

## Cc1ccc(NC(=O)c2ccc(CN3CCN(C)CC3)cc2)cc1Nc1nccc(-c2cccnc2)n1 [Imatinib]
1 μM Imatinib vs DMSO control, 6, 24 and 48 h
  RBPMS2 transcript (mRNA) level: No significant changes; also recorded: not influenced

## N#CC(=C(/N)Sc1ccccc1N)/C(C#N)=C(\N)Sc1ccccc1N [U0126]
5 μM U0126 vs DMSO control, 6, 24 and 48 h
  RBPMS2 transcript (mRNA) level: No significant changes; also recorded: not influenced

From US20150259403A1, “Methods and Pharmaceutical Compositions for Treatment of Gastrointestinal Stromal Tumors” (INSERM (INSTITUT NATIONAL DE LA SANTÉ ET DE LA RECHERCHE …, priority 2012, published 2015)
